Assay results taken from US12448394B2, “Heterocyclic pyrazole derivatives as type III receptor tyrosine kinase inhibitors” (DEVELOPMENT CENTER FOR BIOTECHNOLOGY, priority 2019, dated 2025).

Key:
[1] = tested on: phosphorylation of FLT3 and its down-stream effector STAT5; experiment: Western blotting of p-FLT3 and p-STAT5 in MV4-11 cells; format: cell-based; conditions: Homo sapiens; at 30 nM treatment, 3 hours, FLT3-ITD positive MV4-11 leukemia cells; read-out: inhibition activity against phosphorylation of FLT3 and its down-stream effector STAT5
Method in brief: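 MV4-11 cells held overnight in IMDM with 0.1% FBS, then 3 million cells treated with compound for 3 h. Whole lysates immunoblotted for p-FLT3 (Tyr-591), p-STAT5 (Tyr-694) and actin. Band intensities at 30 nM compared to DMSO control; % inhibition = (1 − relative intensity) × 100.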

[2] = tested on: HCC827 NSCLC cell with EGFR exon 19 deletion mutation; experiment: HCC827 cell proliferation assay (counter screen); format: cell-based, human; conditions: Homo sapiens, HCC827 cells, 72 hours treatment, CellTiter96, read-out: anti-proliferation activity HCC827 EGFR Exon19 del, IC50 ranking
Method in brief: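 HCC827 cells (EGFR exon 19 deletion) were seeded at 8000 cells/well in RPMI1640 with 10% FBS, then exposed to increasing compound concentrations for 72 h at 37 °C. Viability was read by CellTiter96 AQueous One (MTS), absorbance 490 nm after 2–4 h.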

[3] = tested on: Molm-14 human acute myeloid leukemia cell with FLT3-ITD mutation; experiment: Molm-14 cell proliferation assay (CellTiter 96); format: cell-based; conditions: Homo sapiens; Molm-14 cells, 72 hours treatment, CellTiter96; read-out: anti-proliferation activity Molm-14 (FLT3-ITD), IC50 ranking
Method in brief: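 Molm-14 (FLT3-ITD AML) cells in RPMI 1640 with 10% heat-inactivated FBS were seeded at 25000 cells/well, incubated overnight at 37° C, 5% CO2, then treated with increasing compound concentrations for 72 hours. Viability was read as absorbance at 490 nm after 2˜4 hours with CellTiter96 AQueous One reagent.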

[4] = tested on: THP-1 human acute monocytic leukemia cell with NRAS G12D mutation; experiment: THP-1 cell proliferation assay (counter screen); format: cell-based; conditions: Homo sapiens, THP-1 cells, 72 hours treatment, CellTiter96, read-out: anti-proliferation activity THP-1 NRAS N12D, IC50 ranking
Method in brief: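 Viability measured as 490 nm absorbance after 2–4 h with CellTiter96 AQueous One reagent, following 72 h treatment with rising compound concentrations. THP-1 cells, 5000/well, grown in RPMI 1640 with 10% FBS and 0.05 mM 2-mercaptoethanol at 37° C, 5% CO2, plated overnight before dosing.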

[5] = tested on: A375 melanoma cell with BRAF V600E mutation; experiment: A375 cell proliferation assay (counter screen); format: cell-based, human; conditions: Homo sapiens, A-375, A375 cells, 72 hours treatment, CellTiter96, read-out: anti-proliferation activity A375 BRAF V600E, IC50 ranking
Method in brief: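 A375 cells (BRAF V600E) seeded at 2000 cells/well in DMEM with 10% FBS, settled overnight at 37° C, 5% CO2, then exposed to increasing compound concentrations for 72 hours. Viability read by MTS-type CellTiter96 AQueous reagent, absorbance at 490 nm after 2–4 hours.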

[6] = tested on: MV4-11 human acute myeloid leukemia cell with FLT3-ITD mutation; experiment: MV4-11 cell proliferation assay (CellTiter 96); format: cell-based; conditions: Homo sapiens, MV4-11, 72 h, MV4-11 cells, 72 hours treatment, CellTiter96; read-out: anti-proliferation activity MV4-11 (FLT3-ITD), IC50 ranking
Method in brief: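 Cells seeded at 6500/well in IMDM with 10% heat-inactivated FBS, left overnight at 37 °C, 5% CO2, then exposed to increasing compound concentrations for 72 h. Viability read as absorbance at 490 nm after 2–4 h with CellTiter96 AQueous One reagent.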

SMILES	IC50 [3]	IC50 [6]	inhibition at 0.03 µM [1]	IC50 [2]	IC50 [4]	IC50 [5]
Cn1ncc2ccc(-c3n[nH]c4c3Cc3sc(-c5ccc(C(=O)N6CCCCC6)cc5)cc3-4)cc21 [Compound 34, (4-(3-(1-methyl-1H-indazol-6-yl)-1,4-dihydro-thieno[2′,3′:4,5]cyclopenta [1,2-c]pyrazol-6-yl)phenyl)(piperidin-1-yl) methanone]	30 to 100 nM	30 to 100 nM	> 50%	> 10 µM	> 10 µM	> 10 µM
Cn1ncc2ccc(-c3n[nH]c4c3Cc3sc(-c5ccc(C(=O)N6CCOCC6)nc5)cc3-4)cc21 [Compound 23, (5-(3-(1-methyl-1H-indazol-6-yl)-1,4-dihydro-thieno[2′,3′:4,5]cyclopenta [1,2-c]pyrazol-6-yl)pyridin-2-yl)(morpholino) methanone]	30 to 100 nM	< 30 nM	> 50%	> 10 µM	> 10 µM	> 10 µM
Cn1ncc2ccc(-c3n[nH]c4c3Cc3sc(-c5cncc(C(=O)N6CCOCC6)c5)cc3-4)cc21 [Compound 31, (5-(3-(1-methyl-1H-indazol-6-yl)-1,4-dihydrothieno[2′,3′:4,5]cyclopenta[1,2-c]pyrazol-6-yl)pyridin-3-yl) (morpholino)methanone]	< 30 nM	< 30 nM	> 50%	1 to 10 µM	1 to 10 µM	1 to 10 µM
c1cc(-c2cc3c(s2)Cc2c(-c4ccc5cn[nH]c5c4)n[nH]c2-3)ccc1CN1CCOCC1 [Compound 6, 4-(4-(3-(1H-indazol-6-yl)-1,4-dihydrothieno[2′,3′:4,5]cyclopenta[1,2-c]pyrazol-6-yl)benzyl)morpholine]	< 30 nM	< 30 nM	> 50%	> 10 µM	> 10 µM	> 10 µM
C[C@@H]1CN(Cc2ccc(-c3cc4c(s3)Cc3c(-c5ccc6cn[nH]c6c5)n[nH]c3-4)cc2)C[C@H](C)O1 [Compound 7, (2S,6R)-4-(4-(3-(1H-indazol-6-yl)-1,4-dihydrothieno[2′,3′:4,5]cyclopenta [1,2-c]pyrazol-6-yl)benzyl)-2,6-dimethylmorpholine]	< 30 nM	< 30 nM	> 50%	> 10 µM	> 10 µM	> 10 µM
Cn1ncc2ccc(-c3n[nH]c4c3Cc3sc(-c5ccc(CN6CCOCC6)c(F)c5)cc3-4)cc21 [Compound 25, 4-(2-fluoro-4-(3-(1-methyl-1H-indazol-6-yl)-1,4-dihydrothieno[2′,3′:4,5]cyclopenta[1,2-c]pyrazol-6-yl)benzyl)morpholine]	30 to 100 nM	< 30 nM	> 50%	> 10 µM	> 10 µM	> 10 µM
C[C@@H]1CN(Cc2ccc(-c3cc4c(s3)Cc3c(-c5ccc6cnn(C)c6c5)n[nH]c3-4)cn2)C[C@H](C)O1 [Compound 9, (2S,6R)-2,6-dimethyl-4-((5-(3-(1-methyl-lH-indazol-6-yl)-1,4-dihydro-thieno[2′,3′:4,5]cyclopenta [1,2-c]pyrazol-6-yl)pyridin-2-yl)methyl) morpholine]	< 30 nM	< 30 nM	> 50%	> 10 µM	> 10 µM	> 10 µM

Now from value to compound, other results behind:

IC50 [3]	IC50 [6]	SMILES	inhibition at 0.03 µM [1]	IC50 [2]	IC50 [4]	IC50 [5]
< 30 nM	< 30 nM	Cn1ncc2ccc(-c3n[nH]c4c3Cc3sc(-c5ccc(CN6CCOCC6=O)cc5)cc3-4)cc21 [Compound 59, 4-(4-(3-(1-methyl-1H-indazol-6-yl)-1,4-dihydro-thieno[2′,3′:4,5]cyclopenta [1,2-c]pyrazol-6-yl)benzyl)morpholin-3-one]	> 50%	> 10 µM	> 10 µM	> 10 µM
< 30 nM	< 30 nM	Cn1ncc2ccc(-c3n[nH]c4c3Cc3sc(N5CCOCC5=O)cc3-4)cc21 [Compound 79, 4-(3-(1-methyl-1H-indazol-6-yl)-1,4-dihydro-thieno[2′,3′:4,5]cyclopenta [1,2-c]pyrazol-6-yl) morpholin-3-one]	> 50%	1 to 10 µM	> 10 µM	1 to 10 µM
30 to 100 nM	< 30 nM	C[C@H]1COCCN1Cc1ccc(-c2cc3c(s2)Cc2c(-c4ccc5cnn(C)c5c4)n[nH]c2-3)cc1 [Compound 75, (S)-3-methyl-4-(4-(3-(1-methyl-1H-indazol-6-yl)-1,4-dihydrothieno [2′,3′:4,5]cyclopenta [1,2-c]pyrazol-6-yl)benzyl)morpholine]	> 50%	> 10 µM	> 10 µM	> 10 µM
< 30 nM	< 30 nM	Cn1ncc2ccc(-c3n[nH]c4c3Cc3sc(-c5ccc(C(=O)N6CCOCC6)c(F)c5)cc3-4)cc21 [Compound 44, (2-fluoro-4-(3-(1-methyl-1H-indazol-6-yl)-1,4-dihydrothieno[2′,3′:4,5]cyclopenta[1,2-c]pyrazol-6-yl)phenyl)(morpholino) methanone]	> 50%	> 10 µM	> 10 µM	> 10 µM
< 30 nM	30 to 100 nM	Cn1ncc2ccc(-c3n[nH]c4c3Cc3sc(-c5ccc(CN6CC7(COC7)C6)cc5)cc3-4)cc21 [Compound 102, 6-(4-(3-(1-methyl-1H-indazol-6-yl)-1,4-dihydro-thieno[2′,3′:4,5]cyclopenta [1,2-c]pyrazol-6-yl)benzyl)-2-oxa-6-azaspiro [3.3]heptane]	> 50%	> 10 µM	> 10 µM	> 10 µM
< 30 nM	< 30 nM	Cn1ncc2ccc(-c3n[nH]c4c3Cc3sc(C5CCN(C(=O)CN6CCOCC6)CC5)cc3-4)cc21 [Compound 98, 1-(4-(3-(1-methyl-1H-indazol-6-yl)-1,4-dihydro-thieno[2′,3′:4,5]cyclopenta [1,2-c]pyrazol-6-yl)piperidin-1-yl)-2-morpholinoethan-1-one]	> 50%	> 10 µM	0.3 to 1 µM	1 to 10 µM
< 30 nM	< 30 nM	Cn1ncc2ccc(-c3n[nH]c4c3Cc3sc(-c5cnc(N)nc5)cc3-4)cc21 [Compound 45, 5-(3-(1-methyl-1H-indazol-6-yl)-1,4-dihydrothieno [2′,3′:4,5]cyclopenta[l,2-c]pyrazol-6-yl)pyrimidin-2-amine]	> 50%	> 10 µM	> 10 µM	> 10 µM
30 to 100 nM	30 to 100 nM	Cn1ncc2ccc(-c3n[nH]c4c3Cc3sc(-c5ccc(CN6CCSCC6)cc5)cc3-4)cc21 [Compound 39, 3-(1-methyl-1H-indazol-6-yl)-6-(4-(thiomorpho-linomethyl)phenyl)-1,4-dihydrothieno[2′,3′:4,5] cyclopenta[1,2-c]pyrazole]	> 50%	> 10 µM	> 10 µM	> 10 µM
< 30 nM	< 30 nM	Cn1ncc2ccc(-c3n[nH]c4c3Cc3sc(N5CCOCC5)cc3-4)cc21 [Compound 78, 4-(3-(1-methyl-1H-indazol-6-yl)-1,4-dihydro-thieno[2′,3′:4,5]cyclopenta [1,2-c]pyrazol-6-yl) morpholine]	> 50%	> 10 µM	> 10 µM	1 to 10 µM
< 30 nM	< 30 nM	Cn1ncc2ccc(-c3n[nH]c4c3Cc3sc(-c5ccc(CN6CCC(N7CCOCC7)CC6)cc5)cc3-4)cc21 [Compound 80, 4-(1-(4-(3-(1-methyl-1H-indazol-6-yl)-1,4-dihydro-thieno[2′,3′:4,5]cyclopenta [1,2-c]pyrazol-6-yl)benzyl)piperidin-4-yl) morpholine]	> 50%	> 10 µM	> 10 µM	> 10 µM
